{"source": "patent US20050234026A1", "about": "“Method and agent for inducing apoptosis/cell death in leukemia cells” (priority 2003, published 2005)", "key": {"CLL cells": {"system": "CLL cells", "test": "Cytotoxicity of NOS inhibitors and NO quenchers/scavengers for freshly-isolated CLL cells in vitro", "format": "cell-based, human", "conditions": "for ED50 for CLL (mean ± SEM): CLL cytotoxicity, freshly-isolated patient cells in vitro; for EC50: read-out: EC50 (average concentration of compound that induced 50% CLL cell death), CLL cell death in vitro, ± SEM; for ED50 for CLL: Table 2, CLL cytotoxicity"}, "[1]": {"biological_target": "recombinant purified human NOS1 (Homo sapiens, UniProt P29475)", "sequence (P29475 whole entry)": "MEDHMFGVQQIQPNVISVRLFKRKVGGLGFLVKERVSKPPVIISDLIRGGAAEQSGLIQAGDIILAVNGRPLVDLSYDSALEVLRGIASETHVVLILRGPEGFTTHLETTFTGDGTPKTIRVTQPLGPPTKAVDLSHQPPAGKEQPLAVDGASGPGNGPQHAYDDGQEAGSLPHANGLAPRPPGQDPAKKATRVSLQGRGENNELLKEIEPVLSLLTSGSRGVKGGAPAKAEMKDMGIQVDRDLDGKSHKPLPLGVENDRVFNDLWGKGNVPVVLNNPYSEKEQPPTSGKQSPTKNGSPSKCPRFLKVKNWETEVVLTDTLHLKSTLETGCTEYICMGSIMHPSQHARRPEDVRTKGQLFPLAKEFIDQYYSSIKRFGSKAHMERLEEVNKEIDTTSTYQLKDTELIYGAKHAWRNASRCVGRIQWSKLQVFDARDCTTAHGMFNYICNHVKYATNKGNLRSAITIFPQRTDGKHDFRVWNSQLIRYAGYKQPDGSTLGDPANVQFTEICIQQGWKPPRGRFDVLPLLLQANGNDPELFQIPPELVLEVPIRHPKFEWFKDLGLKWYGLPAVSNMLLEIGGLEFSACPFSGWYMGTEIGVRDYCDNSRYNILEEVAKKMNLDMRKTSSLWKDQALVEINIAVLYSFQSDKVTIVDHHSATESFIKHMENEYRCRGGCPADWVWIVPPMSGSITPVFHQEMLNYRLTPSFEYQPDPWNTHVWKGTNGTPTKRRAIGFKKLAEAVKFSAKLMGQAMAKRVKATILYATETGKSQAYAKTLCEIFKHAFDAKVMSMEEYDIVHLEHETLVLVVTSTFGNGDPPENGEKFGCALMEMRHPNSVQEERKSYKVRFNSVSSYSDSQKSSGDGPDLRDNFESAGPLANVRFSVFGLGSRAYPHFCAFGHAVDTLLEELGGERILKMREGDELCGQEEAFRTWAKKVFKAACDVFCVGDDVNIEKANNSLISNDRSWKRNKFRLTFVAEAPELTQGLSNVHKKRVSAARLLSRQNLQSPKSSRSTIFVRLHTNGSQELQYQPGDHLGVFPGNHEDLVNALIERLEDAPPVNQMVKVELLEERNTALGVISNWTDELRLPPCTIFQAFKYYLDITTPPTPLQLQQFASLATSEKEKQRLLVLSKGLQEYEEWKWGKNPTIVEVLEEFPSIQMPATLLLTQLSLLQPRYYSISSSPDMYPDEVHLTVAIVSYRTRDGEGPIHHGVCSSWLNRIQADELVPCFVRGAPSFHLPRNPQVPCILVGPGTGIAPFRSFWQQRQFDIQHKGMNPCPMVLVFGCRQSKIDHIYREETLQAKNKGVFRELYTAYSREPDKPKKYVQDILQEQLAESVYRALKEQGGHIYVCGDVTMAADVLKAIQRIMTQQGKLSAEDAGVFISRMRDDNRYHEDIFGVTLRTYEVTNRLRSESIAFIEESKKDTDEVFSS", "test": "Kd for enzyme inhibition, pure human NOS1", "format": "biochemical"}, "[2]": {"system": "freshly-isolated CLL cells", "test": "Apoptosis and death of freshly-isolated CLL cells after exogenous NO donors and drugs", "format": "cell-based, human", "conditions": "for ID50, CLL cell apoptosis and death: acute addition", "from_the_text": "We next wanted to examine CLL cells. These malignant cells differ in many ways from ANLL and normal hematopoietic. In addition to their different lineage, they are unique in that they have a very low growth […], exist primary in the G0 phase of the cell cycle, and have defective apoptosis. […] NO also synergized with the ara-guanosine prodrug 2-amino-9-[…]-D-6-methoxy araguanine (also called 506U78)."}, "[3]": {"conditions": "cited from earlier work"}, "pure human enzyme NOS3": {"biological_target": "pure human enzyme NOS3 (Homo sapiens, UniProt P29474)", "sequence (P29474 whole entry)": "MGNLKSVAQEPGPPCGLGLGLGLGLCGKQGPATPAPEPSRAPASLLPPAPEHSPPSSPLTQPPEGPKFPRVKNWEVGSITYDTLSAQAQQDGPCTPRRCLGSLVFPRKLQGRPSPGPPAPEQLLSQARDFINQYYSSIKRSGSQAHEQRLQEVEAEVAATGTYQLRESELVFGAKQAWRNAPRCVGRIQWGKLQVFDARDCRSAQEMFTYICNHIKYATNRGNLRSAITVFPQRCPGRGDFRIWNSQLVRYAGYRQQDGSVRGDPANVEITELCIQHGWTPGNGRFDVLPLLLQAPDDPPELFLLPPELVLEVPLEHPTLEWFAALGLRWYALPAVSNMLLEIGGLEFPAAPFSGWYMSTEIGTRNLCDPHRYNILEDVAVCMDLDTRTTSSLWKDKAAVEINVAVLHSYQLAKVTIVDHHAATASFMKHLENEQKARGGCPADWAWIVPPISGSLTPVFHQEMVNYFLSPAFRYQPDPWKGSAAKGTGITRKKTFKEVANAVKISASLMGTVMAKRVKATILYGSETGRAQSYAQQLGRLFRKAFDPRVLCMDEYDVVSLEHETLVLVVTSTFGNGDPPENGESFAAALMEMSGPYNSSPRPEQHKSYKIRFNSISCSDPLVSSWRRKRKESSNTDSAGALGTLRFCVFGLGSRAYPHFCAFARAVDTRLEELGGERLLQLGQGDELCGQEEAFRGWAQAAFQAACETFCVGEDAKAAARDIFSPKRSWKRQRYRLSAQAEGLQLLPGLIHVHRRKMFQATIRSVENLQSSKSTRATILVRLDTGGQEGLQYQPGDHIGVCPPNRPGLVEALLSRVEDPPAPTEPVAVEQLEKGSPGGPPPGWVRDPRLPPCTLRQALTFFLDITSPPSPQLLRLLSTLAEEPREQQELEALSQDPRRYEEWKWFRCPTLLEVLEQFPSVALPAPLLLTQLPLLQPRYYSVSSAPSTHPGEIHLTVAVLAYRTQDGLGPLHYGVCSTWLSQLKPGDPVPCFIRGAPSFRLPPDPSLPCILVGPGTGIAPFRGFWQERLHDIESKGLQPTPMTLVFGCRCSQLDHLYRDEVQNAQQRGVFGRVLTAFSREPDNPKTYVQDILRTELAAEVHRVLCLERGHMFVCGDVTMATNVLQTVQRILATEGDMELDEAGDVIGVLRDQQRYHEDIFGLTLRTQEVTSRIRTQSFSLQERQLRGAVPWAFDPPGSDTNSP", "test": "Kd for enzyme inhibition, pure human NOS3", "format": "biochemical"}, "[4]": {"conditions": "normals and trials for septic shock and migraine; cited from earlier work"}, "[5]": {"system": "HL-60 myeloblastic leukemia cells", "test": "Growth of HL-60 myeloblastic leukemia cells under NO-delivering drugs", "format": "cell-based, human", "conditions": "NO delivered from the drug", "from_the_text": "While studying NO and macrophages progressed in the late 1980s, we hypothesized that NO produced in the BM would be a modulator of normal and leukemic hematopoiesis. […] The differentiated cells were vacuolated, and had increased expression of nonspecific esterase, CD11 b, and CD14."}, "normal human BM cells": {"system": "normal human BM cells", "test": "Colony formation of normal human bone marrow cells / CD34+ cells in methylcellulose", "format": "cell-based", "conditions": "normal human BM cells in methylcellulose with erythropoietin and colony stimulating factors", "procedure": "The effects of NO on the growth and differentiation of normal human BM cells were analyzed (Reference 85). We felt that normal hematopoietic cells, like malignant hematopoietic cells, would be affected by NO. […] In retrospect, we think that the increase in CFU-GM by NO from SNP may be due to alterations in apoptosis secondary to changes in bcl-2 or caspases. None of the noted inhibitions were related to cGMP."}, "HL-60 and U937 cells": {"system": "HL-60 and U937 cells", "test": "Growth inhibition of acute nonlymphocytic leukemia cell lines by NO donors", "format": "cell-based, human", "from_the_text": "To more closely examine the mechanism of toxicity for myeloid leukemia cells, we did work to determine whether the rate of NO delivery affected its growth inhibition of acute nonlymphocytic leukemia cells. We also wanted to determine whether the NO inhibition of cell growth is associated induction of apoptosis. We treated HL-60 and U937 cells with three compounds that generate the same amount of NO but different rates. […] Furthermore, NO-induced growth inhibition was associated with apoptosis in a rate and concentration-dependent fashion (Reference 39)."}}, "note": "Like-named read-outs stand apart in the source and are kept apart here.", "data": [{"molecule": "C=CCC(=N)NCCC[C@H](N)C(=O)O", "note": "[Vinyl-L-NIO, N^5-(1-imino-3-butenyl)-L-ornithine]", "values": [{"measurement": "ED50 for CLL (mean ± SEM)", "setting": "CLL cells", "value": "747 ± 126", "unit": "µM"}, {"measurement": "EC50", "setting": "CLL cells; Homo sapiens", "value": "747 ± 126", "unit": "µM"}, {"measurement": "ED50 for CLL", "setting": "CLL cells", "value": 747, "unit": "µM"}, {"measurement": "Kd", "setting": "[1]", "value": 0.1, "unit": "µM"}]}, {"molecule": "FC(F)(F)c1ccccc1-n1ccnc1", "note": "[TRIM, 1-(2-Trifluoromethylphenyl)imidazole]", "values": [{"measurement": "ED50 for CLL (mean ± SEM)", "setting": "CLL cells", "value": "445 ± 46", "unit": "µM"}, {"measurement": "EC50", "setting": "CLL cells; Homo sapiens", "value": "445 ± 46", "unit": "µM"}]}, {"molecule": "C/C1=C2/[N-][C@H]([C@H](CC(N)=O)[C@@]2(C)CCC(=O)NC[C@@H](C)OP(=O)([O-])O[C@H]2[C@@H](O)[C@@H](n3cnc4cc(C)c(C)cc43)O[C@@H]2CO)[C@]2(C)N=C(/C(C)=C3N=C(/C=C4N=C1[C@@H](CCC(N)=O)C\\4(C)C)[C@@H](CCC(N)=O)[C@]\\3(C)CC(N)=O)[C@@H](CCC(N)=O)[C@]2(C)CC(N)=O.[Co+3].[OH-]", "note": "[Hydroxocobalamin]", "values": [{"measurement": "ED50 for CLL (mean ± SEM)", "setting": "CLL cells", "value": "148 ± 46", "unit": "µM"}, {"measurement": "EC50", "setting": "CLL cells", "value": "148 ± 46", "unit": "µM"}]}, {"molecule": "CC1(C)N([O])C(c2ccc(C(=O)O)cc2)=[N+]([O-])C1(C)C", "note": "[Carboxy-PTIO, 2-(4-Carboxyphenyl)-4,4,5,5-tetramethylimidazoline-1-oxyl-3-oxide]", "values": [{"measurement": "ED50 for CLL (mean ± SEM)", "setting": "CLL cells", "value": "227 ± 31", "unit": "µM"}, {"measurement": "EC50", "setting": "CLL cells", "value": "227 ± 31", "unit": "µM"}]}, {"molecule": "CCCN(CCCN)/[N+]([O-])=N/O", "note": "[PAPA-NO]", "values": [{"measurement": "ID50, CLL cell apoptosis and death", "setting": "[2]; freshly-isolated CLL cells", "value": 850, "unit": "µM"}, {"measurement": "half-life of NO delivery", "setting": "[3]", "value": 30, "unit": "min"}]}, {"molecule": "Nc1nc(F)nc2c1ncn2[C@@H]1O[C@H](CO)[C@@H](O)[C@@H]1O", "note": "[fludarabine]", "values": [{"measurement": "ID50, CLL cell apoptosis and death", "setting": "[2]; freshly-isolated CLL cells", "value": 2, "unit": "µM"}]}, {"molecule": "Cl.Cl.N=C(Nc1ccc(CCNCc2cccc(Cl)c2)cc1)c1cccs1", "note": "[ARL-17477, N-[4-(2-{[(3-chlorophenyl)methyl]amino}ethyl)phenyl]-2-thiophenecarboximide dihydrochloride]", "values": [{"measurement": "ED50 for CLL (mean ± SEM)", "setting": "CLL cells", "value": "11 ± 2", "unit": "µM"}, {"measurement": "ED50 for CLL", "setting": "CLL cells", "value": 11, "unit": "µM"}, {"measurement": "EC50", "setting": "CLL cells", "value": "11 ± 2", "unit": "µM"}, {"measurement": "Kd", "setting": "pure human enzyme NOS3", "value": 1, "unit": "µM"}]}, {"molecule": "NCCNCCN", "note": "[DETA]", "values": [{"measurement": "Effect on CLL cells (control for NO dependence)", "setting": "[2]; freshly-isolated CLL cells", "value": "had no effects"}]}, {"molecule": "CNC(=N)NCCC[C@H](N)C(=O)O", "note": "[L-N^G-monomethylarginine]", "values": [{"measurement": "ED50 for CLL", "setting": "CLL cells", "value": ">2000", "unit": "µM"}, {"measurement": "Effects on cardiovascular, liver, or hematopoietic function", "setting": "[4]", "value": "no major effects"}]}, {"molecule": "CNCCCCCCN(C)/[N+]([O-])=N/O", "note": "[MAMA-NO]", "values": [{"measurement": "ID50, CLL cell apoptosis and death", "setting": "[2]; freshly-isolated CLL cells", "value": 1658, "unit": "µM"}, {"measurement": "half-life of NO delivery", "setting": "[3]", "value": 2, "unit": "min"}]}, {"molecule": "S-nitrosoacetylpenicillamine [SNAP]", "values": [{"measurement": "Growth of HL-60 cells", "setting": "[5]", "value": "potently inhibited"}, {"measurement": "Development of marrow colonies", "setting": "normal human BM cells", "value": "inhibited"}]}, {"molecule": "NC(=N[N+](=O)[O-])NCCCC(N)C(=O)O", "note": "[L-N^G-nitroarginine]", "values": [{"measurement": "ED50 for CLL", "setting": "CLL cells", "value": ">2000", "unit": "µM"}]}, {"molecule": "[NH-]c1c[n+](N2CCOCC2)no1", "note": "[SIN-1]", "values": [{"measurement": "Growth of HL-60 cells", "setting": "[5]", "value": "potently inhibited"}, {"measurement": "Development of marrow colonies", "setting": "normal human BM cells", "value": "inhibited"}]}, {"molecule": "Cc1ccnc(N)c1", "note": "[2-amino-4-methyl pyridine]", "values": [{"measurement": "ED50 for CLL", "setting": "CLL cells", "value": ">2000", "unit": "µM"}]}, {"molecule": "NCCN(CCN)/[N+]([O-])=N/O", "note": "[DETA-NO]", "values": [{"measurement": "Inhibition of leukemia cell and colony growth (rank)", "setting": "HL-60 and U937 cells", "value": "most potent inhibitor"}, {"measurement": "Interaction with fludarabine in killing CLL cells", "setting": "[2]; combination with fludarabine", "value": "acted synergistically"}, {"measurement": "ID50, CLL cell apoptosis and death", "setting": "[2]; freshly-isolated CLL cells", "value": 188, "unit": "µM"}, {"measurement": "Interaction with other agents in killing CLL cells", "setting": "[2]; with 5-fluorouracil, gemcitabine, doxorubicin, chlorambucil or SN-38", "value": "did not enhance the activity"}, {"measurement": "half-life of NO delivery", "setting": "[3]", "value": 1200, "unit": "min"}]}, {"molecule": "O=[N+]([O-])c1cccc2cn[nH]c12", "note": "[7-NI, 7-Nitroindazole]", "values": [{"measurement": "ED50 for CLL (mean ± SEM)", "setting": "CLL cells", "value": "131 ± 23", "unit": "µM"}, {"measurement": "EC50", "setting": "CLL cells; Homo sapiens", "value": "131 ± 23", "unit": "µM"}]}]}
